“And” between values parts separate entries of the source, which are not always exact repeats. Identical values can stand only once. “Also recorded” adds a separate entry of the source. Like-named read-outs stand apart in the source and are kept apart here.
Columns and labels:
[1] = test system: rgRSV (recombinant green fluorescent protein-expressing RSV, strain A2); experiment: Inhibition test on rgRSV-infected HEp-2 cells (GFP foci); details: 24-72 h, coumarin, esculin, umbelliferone 300 µM, esculetin 150 µM, 4-methyl 150 µM
RSV-luc (rA2-Rluc) [2] = experiment: Inhibition assay of β-cyclodextrin-encapsulated compounds on differentiated HBE cultures inoculated with RSV-luc; details: for inhibition compared with the PC (result in words) / mean difference vs positive control: encapsulated; for mean difference vs positive control / decrease in RSV infection: RSV-luc; for decrease in RSV infection: encapsulated with β-cyclodextrin, 48 h
A549 cells [3] = experiment: MTT cytotoxicity assay on A549 cells; details: A549 cells
RSV-luc (rA2-Rluc) [4] = details: A549 cells; for inhibition of RSV-luc (result in words): not encapsulated, luciferase RLU; for Selectivity Index (SI): from CC50 and IC50
A549 cells [5] = details: human, 48 h
RSV-luc (rA2-Rluc) [6] = experiment: microbe, parasite or virus in culture; details: human respiratory syncytial virus, A549, read-out: IC50 (concentration inhibiting 50% viral replication)
[7] = MTT cytotoxicity assay on A549 cells; details: human
influenza virus = test system: influenza virus; set-up: method as in PMID 20092255; details: plaque reduction assay, cited from earlier work
[8] = MTT, 24 h, modified umbelliferones

| Compound | inhibition of rgRSV (result in words) [1] | inhibition compared with the PC (result in words) (RSV-luc (rA2-Rluc) [2]) | concentration at which the cells were 80% viable (A549 cells [3]; MTT, 48 h) [µM] | viral inhibition at 24 h (RSV-luc (rA2-Rluc) [4]; RSV-luc) | viral inhibition at 48 h (RSV-luc (rA2-Rluc) [4]; RSV-luc) | inhibition of RSV-luc (result in words) (RSV-luc (rA2-Rluc) [4]) | concentration at which the cells were 80% viable (A549 cells [5]) [µM] | IC50 (RSV-luc (rA2-Rluc) [6]) [µM] | CC50 [7] [µM] | Selectivity Index (SI) (RSV-luc (rA2-Rluc) [4]) | other results |
| --- | --- | --- | --- | --- | --- | --- | --- | --- | --- | --- | --- |
| 5,7-Dihydroxycoumarin-4-methylcoumarin [4-methyl esculetin] | inhibited rgRSV effectively | no significant inhibition | 75 | about 40% | inhibition doubling | reduced luciferase gene expression | – | – | – | – | CC50 (A549 cells [3]; read-out: CC50 (concentration causing 50% cytotoxicity), MTT, extrapolated from CC90 and CC100): 1040 µM; IC50 (RSV-luc (rA2-Rluc) [4]; read-out: IC50 (concentration inhibiting 50% viral replication), RSV-luc): 70 µM |
| O=c1ccc2ccccc2o1 [Coumarin, 1,2 Benzopyrone] | did not | – | – | – | – | did not show inhibition; also recorded: no reduction in infection | 300 | 1650 | 3560 | 2.16 | mean difference vs positive control (RSV-luc (rA2-Rluc) [2]): 19,333,333 RLU |
| O=c1ccc2cc(O)c(O)cc2o1 [Esculetin, 6,7-Dihydroxycoumarin] | inhibited rgRSV effectively | – | – | approximately 50% | 70% | reduced luciferase gene expression | 125 | 180 | 1410 | 7.56 | decrease in RSV infection (RSV-luc (rA2-Rluc) [2]): ~15%; mean difference vs positive control (RSV-luc (rA2-Rluc) [2]): 12,600,000 RLU |
| O=c1ccc2cc(O[C@@H]3O[C@H](CO)[C@@H](O)[C@H](O)[C@H]3O)c(O)cc2o1 [Esculin, 6,7-Dihydroxycoumarin-6-glucoside] | did not | no significant inhibition | 300 | – | – | did not show inhibition | – | 1590 | 1930 | 1.21 | – |
| COc1ccc(C2CC(=O)c3c(O)cc(O)cc3O2)cc1O (stereo not drawn) [Hesperetin, 3′,5,7-Trihydroxy-4′-methoxyflavanone] | – | no significant inhibition | – | 57% | not maintained | reduced luciferase gene expression | 300 | 360 | 2670 | 7.39 | decrease in RSV infection (RSV-luc (rA2-Rluc) [2]): ~7% and 7.5% |
| CN[C@@H]1C[C@H]2O[C@@](C)([C@@H]1OC)n1c3ccccc3c3c4c(c5c6ccccc6n2c5c31)C(=O)NC4 [Staurosporine, reference compound] | – | – | – | – | – | – | – | – | – | – | cells unavailable (A549 cells [3]; Staurosporine 1 mM, 48 h): 50% |
| O=c1ccc2ccc(O)cc2o1 [Umbelliferone, 7-Hydroxycoumarin] | did not | no significant inhibition | 300 | – | – | did not show inhibition | – | 5140 | 2400 | 0.46 | – |
| CC(=O)Oc1ccc2ccc(=O)oc2c1 [acetylated umbelliferone, 7-Acetoxycoumarin] | – | – | – | – | – | – | – | – | – | – | concentration that resulted in >80% viable cells (A549 cells [3]; [8]): 20 µM; cytotoxicity compared (result in words) (A549 cells [3]; [8]): higher cytotoxicity than prenylated umbelliferone |
| O=c1ccc2ccc3occc3c2o1 [angelicin] | – | – | – | – | – | – | – | – | – | – | reduction of influenza virus infection (influenza virus; 20 nM): 50%; reduction of influenza virus infection (result in words) (influenza virus; 100 nM): completely |
| OC[C@H]1O[C@@H]2O[C@H]3[C@H](O)[C@@H](O)[C@@H](O[C@H]4[C@H](O)[C@@H](O)[C@@H](O[C@H]5[C@H](O)[C@@H](O)[C@@H](O[C@H]6[C@H](O)[C@@H](O)[C@@H](O[C@H]7[C@H](O)[C@@H](O)[C@@H](O[C@H]8[C@H](O)[C@@H](O)[C@@H](O[C@H]1[C@H](O)[C@H]2O)O[C@@H]8CO)O[C@@H]7CO)O[C@@H]6CO)O[C@@H]5CO)O[C@@H]4CO)O[C@@H]3CO [β-cyclodextrin] | – | – | – | – | – | – | – | – | – | – | decrease of the available cells (A549 cells [5]): about 5% |

From PMC11676883, “Coumarins and Hesperetin Inhibit Human Respiratory Syncytial Virus Infection” (International Journal of Molecular Sciences, 2024)
